The values that follow are results of earlier work, collected in patent US5952306A, “Integrin receptor antagonists” (Merck & Co., Inc., priority 1997, dated 1999).

Data set [1] deals with cell attachment-promoting effects of fibronectin and vitronectin.
Data set [2] concerns platelet aggregation and thrombus formation in mammalian blood.

“arginine-glycine-aspartic acid [Arg-Gly-Asp]”: the “activity (duplicate or inhibit cell attachment-promoting effects)” value in data set [1] is given as “low activity”.

For the substance Echistatin, in the data set with bone resorption, the block bone resorption result is listed as “can effectively block bone resorption”.

Regarding “N-amidino-piperidine-3-carboxylglycyl-L-aspartyl-L-valine”, in data set [2], the “inhibit platelet aggregation and thrombus formation in mammalian blood” value is “inhibit platelet aggregation and thrombus formation”.
